We go through one molecule from patent publication US20240342169A1 (BETTA PHARMACEUTICALS CO., LTD, priority 2021, published 2024).

Each structure is given as a SMILES string.

In assay [1] the test system is Hs746T cells (harbor an MET exon 14 skipping mutation). Put plainly: Cell proliferation inhibitory activity (CellTiter-Glo). It is filed as cell-based. The note with it: Homo sapiens, 168 hours incubation, CTG. Here is the method: • 1). Cells in logarithmic growth phase were harvested and counted using cell counter. Trypan blue exclusion test was used to measure the cell viability to make sure the cell viability is at least 90%.
2). Adjust cell concentration, 180 μL cell suspension was added to each well of the 96-well plate at a density of 1200 cells/well.
3). The 96-well plate was incubated overnight under 5% CO2 and 95% humidity conditions at 37° C.
• 1). 20 μL PBS was added to each well of the seeded 96-well plate. • 2). CTG agent was melted and the cell plate was equilibrated to room temperature for 30 minutes. • 3). 100 μL CTG solution was added to each well. • 4). The plate was placed on an orbital shaker for 5 minutes to lyse the cells. • 5). The plate was placed at room temperature for 20 minutes to stabilize the luminescent signal. • 6). TO luminescence value (Lum) was recorded.
• 1). CTG agent was melted and the cell plate was equilibrated to room temperature for 30 minutes. • 2). 100 μL CTG solution was added to each well. • 3). The plate was placed on an orbital shaker for 5 minutes to lyse the cells. • 4). […] Endpoint luminescence value (Lum) was recorded.
The data were analyzed using GraphPad Prism 7.0, in order to calculate IC50, a dose-response curve was fitted using nonlinear regression model with a sigmoidal dose response. […]
(ATP-based viability assays read luminescence as a measure of living cells.)

Assay [2] concerns stage IIIB/IV NSCLC carrying a MET exon 14 skipping mutation. Description: Clinical study in NSCLC patients carrying a MET exon 14 skipping mutation. The note with it: 225 mg orally once a day. It is filed as in vivo, human. An excerpt: Inclusion Criteria: Male or female adults, aged >18 years; Patients had newly diagnosed histologically/cytologically confirmed stage IIIB/IV. NSCLC; Patients carrying a MET exon 14 skipping mutation; EGFR/ALK wild type; at least one measurable lesion.

For assay [3], the target named is T1, MET(ex14Del) kinase (Homo sapiens, UniProt P08581, DEL963-1009).
T1 construct: purchased Sinalchem (so in the source)
T1 sequence (P08581 with tags, fused parts or gaps DEL963-1009 limits assumed): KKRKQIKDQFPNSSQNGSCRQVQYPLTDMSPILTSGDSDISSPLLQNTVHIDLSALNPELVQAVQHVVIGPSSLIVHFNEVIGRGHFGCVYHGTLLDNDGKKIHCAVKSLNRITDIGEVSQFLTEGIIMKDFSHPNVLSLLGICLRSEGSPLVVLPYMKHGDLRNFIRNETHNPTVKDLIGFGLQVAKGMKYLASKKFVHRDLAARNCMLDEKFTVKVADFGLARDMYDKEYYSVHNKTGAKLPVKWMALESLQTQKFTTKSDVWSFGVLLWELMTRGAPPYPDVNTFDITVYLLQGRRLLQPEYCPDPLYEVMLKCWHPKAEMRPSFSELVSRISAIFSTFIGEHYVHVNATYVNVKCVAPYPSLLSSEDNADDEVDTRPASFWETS
Put plainly: Kinase inhibitory activity assay (ADP-Glo Kinase Assay Kit). The class given is biochemical. The note with it: 60 minutes at 25° C., read-out: IC50 (half inhibitory concentration) for MET (ex14Del) kinase. As to the method:
• MET(ex14Del) kinase(Sinalchem, M52-12PG); • ADP-Glo Kinase Assay Kit(Promega, V9102);
And then serially diluted 9 times with DMSO at a volume ratio of 1:3 to make 10 concentrations of 100× compound working solution, the diluted compound solution was added to a 384-well plate at a volume of 0.1 μL/well. 5 μL enzyme working solution was added to the 384-well plate, centrifuged at 1000 rpm for 1 minute, incubated 15 minutes at 25° C. 5 μL substrate working solution was added to each well to make 10 concentrations of 1× compound working solution by 3-fold serial dilutions, in which the maximum concentration of the compound solution is 3000 nM, the reaction was triggered and incubated 60 minutes at 25° C. 10 μL ADP-Glo agent(Promega, V9102) was added to each well, centrifuged at 1000 rpm for 1 minute, incubated 15 minutes at 25° C., then 20 μL kinase detection reagent was added to each well, centrifuged at 1000 rpm for 1 minute. RLU (relative luminescence units) was read by Envision Multimode Plate Reader, the value of RLU was used to characterize the degree of reaction between enzyme and substrate, IC50 values were calculated by XLfit 5.3.1 nonlinear regression equation.
Background: In ADP-Glo the light output rises with the ADP produced.

The test system of assay [4] is Hs746T Xenograft Model. Description: In vivo antitumor activity, Hs746T Xenograft Model. Details: species or system BALB/c nude mice. The note with it: for Tumor volume: 30 mg/kg intragastrically twice a day. An excerpt: BALB/c nude mice provided by Shanghai Sipur-Bika Experimental Animal Co., Ltd: SPF grade animals, 6-8 weeks old, weighing 18-23 grams; gender: female; number: 18 mice in the group. • Antibiotic(penicillin, streptomycin): (Gibco, 15240-062). • Administration in solvent control group: Aqueous solution containing 0.5% HPMC and 0.4% Tween 80.
In order to prepare a Hs746T Xenograft Model, BALB/c Nude mice were inoculated subcutaneously with Hs746T cells (harbor an MET exon 14 skipping mutation, provided by ATCC (American Type Cultural Collection)). […] Test compounds were administered intragastrically starting from group date, twice a day for 18 days. Safety evaluation was performed based on animal weight changes and death, and efficacy evaluation was performed based on relative tumor inhibition rate (TGI %).
Human gastric cancer Hs746T cells were cultured single layer in vitro using DMEM medium containing […] and 1% antibiotic solution, and incubated in a 5% CO2, 37° C. incubator. The cells were subcultured traditionally twice a week. The cells were harvested when the confluence reached 80%-90% and the number of cells reaches the required level, and then the cells were counted and seeded.
3. Tumor Measurement and Experimental Indicators Tumor diameters were measured twice a week with vernier calipers. The formula for calculating tumor volume was: V=0.5a×b2, where a and b are the long and short diameters of the tumor, respectively.
After the experiment, the tumor weight will be measured and TGI (%) will be calculated to reflect the rate of tumor growth inhibition. Calculation of TGI(%):TGI (%)=[1−(Average tumor volume at the end of administration in a certain treatment group−Average tumor volume at the beginning of administration in this treatment group)/(Average tumor volume at the end of treatment in the solvent control group−Average tumor volume at the beginning of treatment in the solvent control group)]×100%.

Regarding `C[C@@H]1CN(C(=O)c2ccc(NC(=O)c3cc(O[C@H](C)c4c(Cl)ccc(F)c4Cl)c(N)nn3)cc2)C[C@H](C)N1` [Ensartinib, ensartinib], the IC50 in assay [1] came out at 0.031 µM; in assay [3], 0.0076 µM. Besides, the “ORR (objective response rate)” value in assay [2] (12/17 patients) stood at 71%. Besides, the “DCR (disease control rate)” value in assay [2] (16/17 patients) is 94%. In assay [2] (17 patients), the “average tumor shrinkage rate” value was −37.7%. Moreover, the “CR (complete response)” value in assay [2] (among 17 patients) is given as 1 case. Besides, the “PR (partial response)” value in assay [2] (among 17 patients) was determined as 11 cases. For the same molecule, the “Tumor growth in tumor-bearing mice (in words)” value in assay [4] (30 mg/kg intragastrically twice a day for 18 days) is reported as “obvious tumor regression was observed”. Moreover, the Tumor volume in assay [4] (Day 0 (start of dosing)) is recorded as 128 ± 10 mm^3; in assay [4] (Day 3), 109 ± 8 mm^3; in assay [4] (Day 7) it was 101 ± 8 mm^3; in assay [4] (Day 10) it was 74 ± 9 mm^3; in assay [4] (Day 14), 49 ± 8 mm^3; in assay [4] (Day 17) it was 29 ± 15 mm^3.
